According to PubChem BioAssay (NCI):
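Five compound concentrations were applied to cells in 96-well plates for 48 hours; endpoints were derived by simple linear interpolation of the resulting dose-response curve. Abbreviation: GI50, concentration required for 50% inhibition of growth. TGI: concentration producing complete growth inhibition.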

How the values were obtained:
Experiment in all cases: NCI-60 cell line screen, 48 h
IGROV1 ovarian = system: IGROV1 ovarian
OVCAR-4 ovarian = system: OVCAR-4 ovarian
U251 CNS = system: U251 CNS
SW-620 colon = system: SW-620 colon
SF-539 CNS = system: SF-539 CNS
786-0 renal = system: 786-0 renal
OVCAR-5 ovarian = system: OVCAR-5 ovarian
PC-3 prostate = system: PC-3 prostate
M14 melanoma = system: M14 melanoma
SK-OV-3 ovarian = system: SK-OV-3 ovarian
HS 578T breast = system: HS 578T breast
HOP-92 NSCLC = system: HOP-92 NSCLC
UACC-62 melanoma = system: UACC-62 melanoma
HCT-116 colon = system: HCT-116 colon
BT-549 breast = system: BT-549 breast
RPMI-8226 leukemia = system: RPMI-8226 leukemia
A549 NSCLC = system: A549 NSCLC
SF-268 CNS = system: SF-268 CNS
HCC-2998 colon = system: HCC-2998 colon
HT29 colon = system: HT29 colon
MALME-3M melanoma = system: MALME-3M melanoma
NCI/ADR-RES ovarian = system: NCI/ADR-RES ovarian
SK-MEL-2 melanoma = system: SK-MEL-2 melanoma
NCI-H522 lung = system: NCI-H522 lung
HOP-62 NSCLC = system: HOP-62 NSCLC
T-47D breast = system: T-47D breast
RXF 393 renal = system: RXF 393 renal
K-562 leukemia = system: K-562 leukemia
HL-60(TB) leukemia = system: HL-60(TB) leukemia
DU-145 prostate = system: DU-145 prostate
MDA-MB-231 breast = system: MDA-MB-231 breast
CAKI-1 renal = system: CAKI-1 renal
KM12 colon = system: KM12 colon
NCI-H460 lung = system: NCI-H460 lung
NCI-H226 lung = system: NCI-H226 lung
HCT-15 colon = system: HCT-15 colon
MDA-MB-435 = system: MDA-MB-435
LOX IMVI melanoma = system: LOX IMVI melanoma
A498 renal = system: A498 renal
ACHN renal = system: ACHN renal
SF-295 CNS = system: SF-295 CNS
SNB-75 CNS = system: SNB-75 CNS
MCF7 breast = system: MCF7 breast
SNB-19 CNS = system: SNB-19 CNS
COLO 205 colon = system: COLO 205 colon
UO-31 renal = system: UO-31 renal
NCI-H23 lung = system: NCI-H23 lung
SK-MEL-28 melanoma = system: SK-MEL-28 melanoma
SN12C renal = system: SN12C renal
UACC-257 melanoma = system: UACC-257 melanoma
TK-10 renal = system: TK-10 renal
SK-MEL-5 melanoma = system: SK-MEL-5 melanoma
CCRF-CEM leukemia = system: CCRF-CEM leukemia
SR leukemia = system: SR leukemia
EKVX NSCLC = system: EKVX NSCLC

## O=C(CNc1nc(-c2cccc([N+](=O)[O-])c2)cs1)Nc1cccc([N+](=O)[O-])c1
IGROV1 ovarian
  GI50: 333 nM
  TGI: 1330 nM
OVCAR-4 ovarian
  GI50: 2090 nM
  TGI: 5070 nM
U251 CNS
  GI50: 1710 nM
  TGI: 5000 nM
SW-620 colon
  GI50: 372 nM
  TGI: 2010 nM
SF-539 CNS
  GI50: 1530 nM
  TGI: 3490 nM
786-0 renal
  GI50: 1940 nM
  TGI: 4880 nM
OVCAR-5 ovarian
  GI50: 542 nM
  TGI: 2370 nM
PC-3 prostate
  GI50: 593 nM
  TGI: 2660 nM
M14 melanoma
  GI50: 1480 nM
  TGI: 3060 nM
SK-OV-3 ovarian
  GI50: 871 nM
  TGI: 2410 nM
HS 578T breast
  GI50: 1600 nM
  TGI: 5280 nM
HOP-92 NSCLC
  GI50: 1700 nM
  TGI: 4000 nM
UACC-62 melanoma
  GI50: 662 nM
  TGI: 2030 nM
HCT-116 colon
  GI50: 1240 nM
  TGI: 3180 nM
BT-549 breast
  GI50: 627 nM
  TGI: 2210 nM
RPMI-8226 leukemia
  GI50: 1470 nM
  TGI: 4320 nM
A549 NSCLC
  GI50: 2630 nM
  TGI: 9090 nM
SF-268 CNS
  GI50: 1690 nM
  TGI: 3350 nM
HCC-2998 colon
  GI50: 1780 nM
  TGI: 3480 nM
HT29 colon
  GI50: 744 nM
  TGI: 2290 nM
MALME-3M melanoma
  GI50: 1580 nM
  TGI: 3180 nM
NCI/ADR-RES ovarian
  GI50: 1470 nM
  TGI: 4590 nM
SK-MEL-2 melanoma
  GI50: 1790 nM
  TGI: 3310 nM
NCI-H522 lung
  GI50: 1330 nM
  TGI: 2900 nM
HOP-62 NSCLC
  GI50: 1980 nM
  TGI: 4130 nM
T-47D breast
  GI50: 1910 nM
  TGI: 4870 nM
RXF 393 renal
  GI50: 522 nM
  TGI: 2070 nM
K-562 leukemia
  GI50: 1030 nM
  TGI: > 100000 nM
HL-60(TB) leukemia
  GI50: 2080 nM
  TGI: 7730 nM
DU-145 prostate
  GI50: 2020 nM
  TGI: 4790 nM
MDA-MB-231 breast
  GI50: 2110 nM
  TGI: 4560 nM
CAKI-1 renal
  GI50: 715 nM
  TGI: 2600 nM
KM12 colon
  GI50: 1360 nM
  TGI: 3090 nM
NCI-H460 lung
  GI50: 1040 nM
  TGI: 2760 nM
NCI-H226 lung
  GI50: 1040 nM
  TGI: 3320 nM
HCT-15 colon
  GI50: 582 nM
  TGI: 2810 nM
MDA-MB-435
  GI50: 1650 nM
  TGI: 3070 nM
LOX IMVI melanoma
  GI50: 577 nM
  TGI: 2040 nM
A498 renal
  GI50: 1300 nM
  TGI: 2580 nM
ACHN renal
  GI50: 1300 nM
  TGI: 2630 nM
SF-295 CNS
  GI50: 2120 nM
  TGI: 5470 nM
SNB-75 CNS
  GI50: 1070 nM
  TGI: 2350 nM
MCF7 breast
  GI50: 942 nM
  TGI: 4610 nM
SNB-19 CNS
  GI50: 2220 nM
  TGI: 6440 nM
COLO 205 colon
  GI50: 1280 nM
  TGI: 2850 nM
UO-31 renal
  GI50: 1290 nM
  TGI: 2670 nM
NCI-H23 lung
  GI50: 404 nM
  TGI: 1760 nM
SK-MEL-28 melanoma
  GI50: 1490 nM
  TGI: 3080 nM
SN12C renal
  GI50: 1740 nM
  TGI: 5030 nM
UACC-257 melanoma
  GI50: 1950 nM
  TGI: 5080 nM
TK-10 renal
  GI50: 1530 nM
  TGI: 5820 nM
SK-MEL-5 melanoma
  GI50: 1790 nM
  TGI: 3240 nM
CCRF-CEM leukemia
  GI50: 446 nM
  TGI: > 100000 nM
SR leukemia
  GI50: 419 nM
  TGI: > 100000 nM
EKVX NSCLC
  GI50: 2060 nM
  TGI: 4740 nM
